Legend:
Assay in all cases: relative viability (nuclei count vs DMSO), 5 days (fraction); higher = more cells survive
Kobe2602 + Tozasertib = compound: C1=CC(=CC=C1NC(=S)NNC2=C(C=C(C=C2[N+](=O)[O-])C(F)(F)F)[N+](=O)[O-])F [Kobe2602] + Cc1cc(Nc2cc(N3CCN(C)CC3)nc(Sc3ccc(NC(=O)C4CC4)cc3)n2)n[nH]1 [Tozasertib] (partner 0.1 µM)
Summary of the method: (§1)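 Five library-drug doses in √10 steps were combined with a fixed anchor-drug dose, or a single drug was given alone, by pin tool to lung cancer cell lines in 1536-well plates the day after seeding. Nuclei were stained and counted after 5 days. Relative viability is the nuclei count in treated wells over that in vehicle wells, taken as the median of duplicate plates.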

Zosuquidar + Bortezomib = compound: O[C@@H](COc1cccc2ncccc12)CN1CCN([C@@H]2c3ccccc3[C@@H]3[C@H](c4ccccc42)C3(F)F)CC1 [Zosuquidar] + CC(C)C[C@H](NC(=O)[C@H](Cc1ccccc1)NC(=O)c1cnccn1)B(O)O [Bortezomib] (partner 0.002 µM)
Summary of the method: as §1

Zosuquidar + Pictilisib = compound: O[C@@H](COc1cccc2ncccc12)CN1CCN([C@@H]2c3ccccc3[C@@H]3[C@H](c4ccccc42)C3(F)F)CC1 [Zosuquidar] + CS(=O)(=O)N1CCN(Cc2cc3nc(-c4cccc5[nH]ncc45)nc(N4CCOCC4)c3s2)CC1 [Pictilisib] (partner 1 µM)
Summary of the method: as §1

Zosuquidar + Olaparib = compound: O[C@@H](COc1cccc2ncccc12)CN1CCN([C@@H]2c3ccccc3[C@@H]3[C@H](c4ccccc42)C3(F)F)CC1 [Zosuquidar] + O=C(c1cc(Cc2n[nH]c(=O)c3ccccc23)ccc1F)N1CCN(C(=O)C2CC2)CC1 [Olaparib] (partner 8 µM)
Summary of the method: as §1

| Cell Line | relative viability (Kobe2602 + Tozasertib; first compound 0.2 µM) | relative viability (Kobe2602 + Tozasertib; first compound 0.6325 µM) | relative viability (Kobe2602 + Tozasertib; first compound 2 µM) | relative viability (Kobe2602 + Tozasertib; first compound 6.325 µM) | relative viability (Kobe2602 + Tozasertib; first compound 20 µM) | relative viability (Zosuquidar + Bortezomib; first compound 0.01 µM) | relative viability (Zosuquidar + Bortezomib; first compound 0.03162 µM) | relative viability (Zosuquidar + Bortezomib; first compound 0.1 µM) | relative viability (Zosuquidar + Bortezomib; first compound 0.3162 µM) | relative viability (Zosuquidar + Bortezomib; first compound 1 µM) | relative viability (Zosuquidar + Pictilisib; first compound 0.01 µM) | relative viability (Zosuquidar + Pictilisib; first compound 0.03162 µM) | relative viability (Zosuquidar + Pictilisib; first compound 0.1 µM) | relative viability (Zosuquidar + Pictilisib; first compound 0.3162 µM) | relative viability (Zosuquidar + Pictilisib; first compound 1 µM) | relative viability (Zosuquidar + Olaparib; first compound 0.01 µM) | relative viability (Zosuquidar + Olaparib; first compound 0.03162 µM) | relative viability (Zosuquidar + Olaparib; first compound 0.1 µM) | relative viability (Zosuquidar + Olaparib; first compound 0.3162 µM) | relative viability (Zosuquidar + Olaparib; first compound 1 µM) |
| --- | --- | --- | --- | --- | --- | --- | --- | --- | --- | --- | --- | --- | --- | --- | --- | --- | --- | --- | --- | --- |
| NCI-H3122 | 0.451 | 0.381 | 0.399 | 0.393 | 0.403 | 0.942 | 0.93 | 0.979 | 1.04 | 0.996 | 0.616 | 0.662 | 0.524 | 0.641 | 0.608 | 0.606 | 0.608 | 0.565 | 0.621 | 0.637 |
| NCI-H1650 | 0.409 | 0.337 | 0.319 | 0.24 | 0.271 | 0.227 | 0.226 | 0.206 | 0.219 | 0.222 | 0.555 | 0.688 | 0.531 | 0.686 | 0.586 | 0.95 | 0.812 | 0.725 | 0.714 | 0.742 |
| NCI-H1355 | 0.587 | 0.597 | 0.534 | 0.534 | 0.542 | 1.15 | 1.26 | 1.1 | 1.33 | 1.24 | 0.427 | 0.375 | 0.354 | 0.546 | 0.476 | 0.677 | 0.709 | 0.791 | 0.826 | 0.809 |
| NCI-H1734 | 0.282 | 0.252 | 0.24 | 0.28 | 0.246 | 0.771 | 0.959 | 0.918 | 0.997 | 1.06 | 0.388 | 0.484 | 0.399 | 0.471 | 0.478 | 0.614 | 0.674 | 0.613 | 0.655 | 0.646 |
| LXF-289 | 0.192 | 0.191 | 0.181 | 0.203 | 0.185 | 0.993 | 1.01 | 1.01 | 0.99 | 0.976 | 0.767 | 0.776 | 0.747 | 0.818 | 0.781 | 1.01 | 1.03 | 1.09 | 1.09 | 1 |
| SK-LU-1 | 0.31 | 0.371 | 0.333 | 0.372 | 0.357 | 1.17 | 1.14 | 0.962 |  | 1.41 | 0.552 | 0.642 | 0.567 | 0.689 | 0.543 | 0.517 | 0.535 | 0.485 | 0.531 | 0.435 |
| NCI-H2087 | 0.282 | 0.247 | 0.251 | 0.243 | 0.246 | 0.849 | 0.701 | 0.94 | 0.923 | 0.85 | 0.894 | 0.844 | 0.791 | 1 | 0.853 | 0.586 | 0.557 | 0.603 | 0.578 | 0.539 |
| HCC-78 | 0.428 | 0.413 | 0.369 | 0.314 | 0.525 | 0.582 | 0.392 |  | 0.625 | 0.428 | 0.211 | 0.235 |  | 0.232 | 0.402 | 0.939 |  |  | 0.862 | 0.846 |
| NCI-H2228 | 0.19 | 0.239 | 0.246 | 0.234 | 0.219 | 1.06 | 1.02 | 0.634 | 1.14 | 1.17 | 0.296 | 0.437 | 0.633 | 0.459 | 0.26 | 0.626 | 0.51 | 0.61 | 0.64 | 0.936 |
| H3255 | 0.628 | 0.612 | 0.488 | 0.55 | 0.607 | 0.788 | 0.871 | 0.661 | 0.798 | 0.569 | 0.49 | 0.565 | 0.412 | 0.526 | 0.42 | 0.549 | 0.559 | 0.558 | 0.553 | 0.541 |
| HCC-15 | 0.351 | 0.377 | 0.299 | 0.425 | 0.431 | 0.925 | 0.998 | 0.956 | 0.995 | 1.04 | 0.686 | 0.778 | 0.753 | 0.801 | 0.854 | 0.717 | 0.725 | 0.799 | 0.72 | 0.747 |
| PC-14 | 0.606 | 0.562 | 0.596 | 0.602 | 0.559 | 0.846 | 0.992 | 0.782 | 0.984 | 0.78 | 0.573 | 0.831 | 0.801 | 0.696 | 0.816 | 0.26 | 0.319 | 0.205 | 0.307 | 0.179 |
| NCI-H2023 | 0.253 | 0.326 | 0.244 | 0.175 | 0.157 | 0.93 | 0.939 | 0.878 | 1.4 | 1.06 | 0.235 | 0.235 | 0.171 | 0.324 | 0.271 | 0.498 | 0.549 | 0.52 | 0.485 | 0.477 |
| HCC-44 | 0.906 | 0.838 | 0.92 | 0.861 | 0.687 | 0.872 | 0.949 | 0.885 | 0.952 | 0.864 | 0.615 | 0.57 | 0.603 | 0.742 | 0.815 | 1.01 | 1.02 | 1.02 | 0.961 | 0.934 |
| ChaGo-K-1 | 0.251 | 0.244 | 0.226 | 0.227 | 0.245 | 0.854 | 0.966 | 1.08 | 0.967 | 0.787 | 0.858 | 0.563 | 1.27 | 0.882 | 0.637 | 0.388 | 0.468 | 0.434 | 0.474 | 0.413 |
| COR-L23 | 0.177 | 0.172 | 0.165 | 0.157 | 0.154 | 0.925 | 0.969 | 0.893 | 0.877 | 1.08 | 0.76 | 0.658 | 0.679 | 1.01 | 0.889 | 0.363 | 0.38 | 0.333 | 0.355 | 0.37 |

From the supplement of paper PMC10307832
